From patent US4327210A, “Thiazolylacelamide cephalosporins” (Hoffmann-La Roche Inc., priority 1978, dated 1982)
Converted amounts (≈) assume the structure as drawn.

How the values were obtained:
Proteus vulgaris = experiment: In vitro antimicrobial activity (minimum inhibitory concentration); assay type: cell-based
Text: (§1) In vitro activity: minimum inhibitory concentration (μg/ml)

Staphylococcus aureus = experiment: as above; assay type: cell-based
Text: as §1

Proteus rettgeri = experiment: as above; assay type: cell-based; conditions: Providencia rettgeri
Text: as §1

Escherichia coli [1] = experiment: as above; assay type: cell-based
Text: as §1

Pseudomonas aeruginosa = experiment: as above; assay type: cell-based
Text: as §1

Haemophilus influenzae = experiment: as above; assay type: cell-based
Text: as §1

Proteus mirabilis = experiment: as above; assay type: cell-based
Text: as §1

Serratia marcescens = experiment: as above; assay type: cell-based
Text: as §1

Klebsiella pneumoniae = experiment: as above; assay type: cell-based
Text: as §1

Escherichia coli [2] = experiment: In vivo activity in mice infected intraperitoneally with Escherichia coli; conditions: sc, 96 h, read-out: CD50 (dose with which 50% of the test animals survive); mice infected i.p. with Escherichia coli; s.c. 1, 2 1/2 and 4 hours after infection; survival on fourth day; by interpolation
Method: Groups of 5 mice are infected intraperitoneally with an aqueous suspension of Escherichia coli. The test substance is administered subcutaneously in physiological common salt solution three times, i.e. 1 hour, 21/2 hours and 4 hours, after the infection. The number of surviving animals is determined on the fourth day.

[3] = ATCC6538, Staphylococcus aureus strain ATCC 6538
[4] = Staphylococcus aureus pencillin-resistant strain
[5] = Pseudomonas aeruginosa strain 1
[6] = Pseudomonas aeruginosa strain 2
[7] = Pseudomonas aeruginosa strain 3
[8] = Pseudomonas aeruginosa strain 4
[9] = Pseudomonas aeruginosa strain 5
[10] = Pseudomonas aeruginosa strain 6
[11] = Pseudomonas aeruginosa strain 7
[12] = Haemophilus influenzae strain 1
[13] = Haemophilus influenzae strain 2
[14] = Haemophilus influenzae strain 3
[15] = Haemophilus influenzae strain 4
[16] = Haemophilus influenzae strain 5
[17] = Haemophilus influenzae strain 6
[18] = Haemophilus influenzae strain 7

Structure (SMILES) | MIC (Proteus vulgaris) | MIC (Staphylococcus aureus; [3]) | MIC (Staphylococcus aureus; [4]) | MIC (Proteus rettgeri) | MIC (Escherichia coli [1]; Escherichia coli strain 1) | MIC (Escherichia coli [1]; Escherichia coli strain 2) | MIC (Pseudomonas aeruginosa; [5]) | MIC (Pseudomonas aeruginosa; [6]) | MIC (Pseudomonas aeruginosa; [7]) | MIC (Pseudomonas aeruginosa; [8]) | MIC (Pseudomonas aeruginosa; [9]) | MIC (Pseudomonas aeruginosa; [10]) | MIC (Pseudomonas aeruginosa; [11]) | MIC (Haemophilus influenzae; [12]) | MIC (Haemophilus influenzae; [13]) | MIC (Haemophilus influenzae; [14]) | MIC (Haemophilus influenzae; [15]) | MIC (Haemophilus influenzae; [16]) | MIC (Haemophilus influenzae; [17]) | MIC (Haemophilus influenzae; [18]) | other results
CO/N=C(\C(=O)N[C@@H]1C(=O)N2C(C(=O)O)=C(CSc3nc(=O)c(O)nn3C)CS[C@H]12)c1csc(N)n1 [Product A] | ≤ 0.01 µg/mL | 2.5 µg/mL (≈ 4.51 µM) | 2.5 µg/mL (≈ 4.51 µM) | ≤ 0.01 µg/mL | 0.02 µg/mL (≈ 0.0361 µM) | 0.6 µg/mL (≈ 1.08 µM) | 0.3 µg/mL (≈ 0.541 µM) | 10 µg/mL (≈ 18 µM) | 2.5 µg/mL (≈ 4.51 µM) | 5 µg/mL (≈ 9.02 µM) | 5 µg/mL (≈ 9.02 µM) | 10 µg/mL (≈ 18 µM) | 5 µg/mL (≈ 9.02 µM) | 0.08 µg/mL (≈ 0.144 µM) | 0.005 µg/mL (≈ 0.00902 µM) | 0.005 µg/mL (≈ 0.00902 µM) | 0.005 µg/mL (≈ 0.00902 µM) | 0.0025 µg/mL (≈ 0.00451 µM) | 0.0025 µg/mL (≈ 0.00451 µM) | 0.0025 µg/mL (≈ 0.00451 µM) | MIC (Proteus mirabilis; Proteus mirabilis strain 1): ≤ 0.01 µg/mL; MIC (Proteus mirabilis; Proteus mirabilis strain 2): ≤ 0.01 µg/mL; MIC (Serratia marcescens): 0.08 µg/mL (≈ 0.144 µM); MIC (Klebsiella pneumoniae): 1.2 µg/mL (≈ 2.16 µM); ED50 (Escherichia coli [2]): ≤ 0.005 mg/kg
CO/N=C(\C(=O)N[C@@H]1C(=O)N2C(C(=O)O)=C(CSc3nc(=O)c(O)nn3C)CS[C@H]12)c1csc(NC(=O)CCl)n1 [Product B, (6R,7R)-7-[2-[2-(2-Chloroacetamido)-4-thiazolyl]-2-(Z-methoxyimino)acetamido]-3-[[(2,5-dihydro-6-hydroxy-2-methyl-5-oxo-as-triazin-3-yl)thiol]methyl]-8-oxo-5-thia-1-azabicyclo[4.2.0]oct-2-ene-2-carboxylic acid] | 0.16 µg/mL (≈ 0.254 µM) | 2.5 µg/mL (≈ 3.96 µM) | 5 µg/mL (≈ 7.92 µM) | 0.16 µg/mL (≈ 0.254 µM) | 0.16 µg/mL (≈ 0.254 µM) | 5 µg/mL (≈ 7.92 µM) | 1.2 µg/mL (≈ 1.9 µM) | > 80 µg/mL | 40 µg/mL (≈ 63.4 µM) | 80 µg/mL (≈ 127 µM) | 80 µg/mL (≈ 127 µM) | 80 µg/mL (≈ 127 µM) | 80 µg/mL (≈ 127 µM) | 1.2 µg/mL (≈ 1.9 µM) | 0.3 µg/mL (≈ 0.475 µM) | 0.16 µg/mL (≈ 0.254 µM) | 0.16 µg/mL (≈ 0.254 µM) | 0.08 µg/mL (≈ 0.127 µM) | 0.16 µg/mL (≈ 0.254 µM) | 0.16 µg/mL (≈ 0.254 µM) | MIC (Proteus mirabilis; Proteus mirabilis strain 1): 0.08 µg/mL (≈ 0.127 µM); MIC (Proteus mirabilis; Proteus mirabilis strain 2): 0.16 µg/mL (≈ 0.254 µM); MIC (Serratia marcescens): 2.5 µg/mL (≈ 3.96 µM); MIC (Klebsiella pneumoniae): 10 µg/mL (≈ 15.8 µM); ED50 (Escherichia coli [2]): 0.16 mg/kg; LD50 (in vivo; iv): 250 to 500 mg/kg; LD50 (in vivo; po): > 5000 mg/kg; LD50 (in vivo; sc): 2000 to 4000 mg/kg
